In PubChem BioAssay AID248 (DTP/NCI, 2004):
Several values for one entry are separate records, joined by “and”; a condition that tells them apart may be missing. Equal values may be shown once. Inconclusive results and toxic doses are left out. Cut-off read from the data, not from the text of the source: active = T/C of 150% or more; inactive = T/C below 125%.

Tested on: L1210 leukemia ip in BDF1 mice, survival T/C
Experiment: NCI In Vivo Anticancer Drug Screen. Data for tumor model L1210 Leukemia (intraperitoneal) in B6D2F1 (BDF1) mice
Settings: endpoint: mean survival time, higher = longer survival
Method in brief: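 Read-out is survival time, reported as the treated-group measurement over the vehicle-control measurement.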

[1] = dose: 50.0 mg/kg/injection, schedule: Q04DX003 (ip), vehicle: saline
[2] = dose: 100.0 mg/kg/injection, schedule: Q04DX003 (ip), vehicle: saline
[3] = dose: 200.0 mg/kg/injection, schedule: Q04DX003 (ip), vehicle: saline
[4] = dose: 100.0 mg/kg/injection, schedule: Q01DX001 (ip), vehicle: saline
[5] = dose: 25.0 mg/kg/injection, schedule: Q04DX003 (ip), vehicle: saline with Tween-80
[6] = dose: 50.0 mg/kg/injection, schedule: Q04DX003 (ip), vehicle: saline with Tween-80
[7] = dose: 100.0 mg/kg/injection, schedule: Q04DX003 (ip), vehicle: saline with Tween-80
[8] = dose: 12.5 mg/kg/injection, schedule: Q04DX003 (ip), vehicle: saline
[9] = dose: 200.0 mg/kg/injection, schedule: Q01DX001 (ip), vehicle: water
[10] = dose: 200.0 mg/kg/injection, schedule: Q04DX003 (ip), vehicle: saline with Tween-80
[11] = dose: 400.0 mg/kg/injection, schedule: Q04DX003 (ip), vehicle: saline with Tween-80
[12] = dose: 100.0 mg/kg/injection, schedule: Q01DX009 (ip), vehicle: saline with Tween-80
[13] = dose: 200.0 mg/kg/injection, schedule: Q01DX009 (ip), vehicle: saline with Tween-80
[14] = dose: 400.0 mg/kg/injection, schedule: Q01DX009 (ip), vehicle: saline with Tween-80
[15] = dose: 100.0 mg/kg/injection, schedule: Q04DX002 (ip), vehicle: Klucel (hydroxypropylcellulose) (HPC)
[16] = dose: 200.0 mg/kg/injection, schedule: Q04DX002 (ip), vehicle: Klucel (hydroxypropylcellulose) (HPC)

Measured: T/C

Cc1ccc(C(=NN=C(N)N)c2ccc(C)cc2)cc1
inactive: dose: 3.75 mg/kg/injection, schedule: Q01DX Z (ip), vehicle: saline 101 % of control | dose: 7.5 mg/kg/injection, schedule: Q01DX Z (ip), vehicle: saline 95 % of control | dose: 7.5 mg/kg/injection, schedule: Q01DX Z (oral), vehicle: saline 98 % of control | dose: 15.0 mg/kg/injection, schedule: Q01DX Z (ip), vehicle: saline 93 % of control and 94 % of control | dose: 15.0 mg/kg/injection, schedule: Q01DX Z (oral), vehicle: saline 96 % of control | dose: 30.0 mg/kg/injection, schedule: Q01DX Z (ip), vehicle: saline 104 % of control | dose: 30.0 mg/kg/injection, schedule: Q01DX Z (oral), vehicle: saline 101 % of control | dose: 60.0 mg/kg/injection, schedule: Q01DX Z (oral), vehicle: saline 101 % of control

O=C1c2[nH]c3ccccc3c2CC2CC12 (stereo unspecified)
inactive: dose: 75.0 mg/kg/injection, schedule: Q01DX001 (ip), vehicle: saline 96 % of control | dose: 150.0 mg/kg/injection, schedule: Q01DX001 (ip), vehicle: saline 104 % of control | dose: 300.0 mg/kg/injection, schedule: Q01DX001 (ip), vehicle: saline 101 % of control

CN(C)C(=NN)N(C)C
inactive: [1] 105 % of control | [2] 100 % of control | [3] 100 % of control

O=[N+]([O-])Nc1cc(Cl)nc(Cl)c1
inactive: dose: 75.0 mg/kg/injection, schedule: Q01DX001 (ip), vehicle: carboxymethylcellulose (CMC) 105 % of control | dose: 150.0 mg/kg/injection, schedule: Q01DX001 (ip), vehicle: carboxymethylcellulose (CMC) 97 % of control

O=Cc1[nH]c(=S)[nH]c(=O)c1Cc1cc([N+](=O)[O-])ccc1O
inactive: dose: 100.0 mg/kg/injection, schedule: Q01DX001 (ip), vehicle: saline with Tween-80 93 % of control | dose: 200.0 mg/kg/injection, schedule: Q01DX001 (ip), vehicle: saline with Tween-80 104 % of control | dose: 400.0 mg/kg/injection, schedule: Q01DX001 (ip), vehicle: saline with Tween-80 95 % of control

NCC(=O)NO
inactive: dose: 75.0 mg/kg/injection, schedule: Q01DX009 (ip), vehicle: saline 99 % of control | dose: 90.0 mg/kg/injection, schedule: Q01DX015 (ip), vehicle: water 92 % of control | [2] 108 % of control | dose: 133.0 mg/kg/injection, schedule: Q01DX015 (ip), vehicle: water 94 % of control | dose: 150.0 mg/kg/injection, schedule: Q01DX009 (ip), vehicle: saline 99 % of control | dose: 200.0 mg/kg/injection, schedule: Q01DX015 (ip), vehicle: water 94 % of control | [3] 106 % of control | dose: 300.0 mg/kg/injection, schedule: Q01DX009 (ip), vehicle: saline 92 % of control | dose: 400.0 mg/kg/injection, schedule: Q04DX003 (ip), vehicle: saline 98 % of control

Cc1ccc(CCCC(CC(=O)O)C(=O)O)cc1 (stereo unspecified)
inactive: dose: 12.5 mg/kg/injection, schedule: Q01DX001 (ip), vehicle: saline with Tween-80 100 % of control | dose: 25.0 mg/kg/injection, schedule: Q01DX001 (ip), vehicle: saline with Tween-80 98 % of control | dose: 50.0 mg/kg/injection, schedule: Q01DX001 (ip), vehicle: saline with Tween-80 88 % of control

CC(C)(C)COC(=O)C(C)(C)C
inactive: [4] 117 % of control | dose: 200.0 mg/kg/injection, schedule: Q01DX001 (ip), vehicle: saline 112 % of control | dose: 400.0 mg/kg/injection, schedule: Q01DX001 (ip), vehicle: saline 102 % of control

O=C(O)c1ccc2ccccc2n1.[Cu+2]
inactive: [4] 93 % of control

CN1CCC(COC(=O)C(O)(c2ccccc2)c2ccccc2)C1 (stereo unspecified)
inactive: [5] 97 % of control | [6] 94 % of control | [7] 101 % of control and 87 % of control

CC(=O)NNC(=O)c1cnccn1
inactive: dose: 6.25 mg/kg/injection, schedule: Q04DX003 (ip), vehicle: saline 100 % of control | [8] 97 % of control | dose: 24.0 mg/kg/injection, schedule: Q04DX003 (ip), vehicle: saline 97 % of control | dose: 25.0 mg/kg/injection, schedule: Q01DX009 (ip), vehicle: water 95 % of control and 98 % of control | dose: 48.0 mg/kg/injection, schedule: Q04DX003 (ip), vehicle: saline 102 % of control | dose: 50.0 mg/kg/injection, schedule: Q01DX009 (ip), vehicle: water 97 % of control and 102 % of control | dose: 100.0 mg/kg/injection, schedule: Q01DX009 (ip), vehicle: water 112 % of control and 123 % of control | [9] 103 % of control | dose: 200.0 mg/kg/injection, schedule: Q01DX009 (ip), vehicle: water 116 % of control and 118 % of control

CC(C)SC(=S)Nc1ccc(Cl)c(Cl)c1
inactive: dose: 30.0 mg/kg/injection, schedule: Q04DX003 (ip), vehicle: saline 95 % of control | dose: 60.0 mg/kg/injection, schedule: Q04DX003 (ip), vehicle: saline 98 % of control | dose: 120.0 mg/kg/injection, schedule: Q04DX003 (ip), vehicle: saline 95 % of control

Cc1cc(C(=O)C(C#N)=Nc2ccc(N(C)C)cc2)c(CN2C(=O)c3ccccc3C2=O)c(=O)n1C
inactive: dose: 100.0 mg/kg/injection, schedule: Q01DX001 (ip), vehicle: water 92 % of control | [9] 94 % of control | dose: 400.0 mg/kg/injection, schedule: Q01DX001 (ip), vehicle: water 94 % of control

CCN(CC)CCC(CCN(CC)CC)(CNC(=O)CN(CC)CC)c1cccc2ccccc12
inactive: dose: 12.5 mg/kg/injection, schedule: Q01DX009 (ip), vehicle: saline 97 % of control | [8] 87 % of control | dose: 25.0 mg/kg/injection, schedule: Q01DX009 (ip), vehicle: saline 114 % of control | dose: 25.0 mg/kg/injection, schedule: Q04DX003 (ip), vehicle: saline 95 % of control | dose: 50.0 mg/kg/injection, schedule: Q01DX009 (ip), vehicle: saline 108 % of control | [1] 88 % of control

O=C(NCc1ccccc1)C1C2C=CC(CC2)C1C(=O)NCc1ccccc1 (stereo unspecified)
inactive: [7] 96 % of control | [10] 96 % of control | [11] 87 % of control

CC(CCC(C)(C)O)C1CCC2C3C(O)CC4CCCCC4(C)C3CC(O)C12C (stereo unspecified)
inactive: [7] 89 % of control | [10] 91 % of control | [11] 88 % of control

O/N=C\c1cc2c3c(c1)CCCN3CCC2
inactive: dose: 100.0 mg/kg/injection, schedule: Q01DX009 (ip), vehicle: Klucel (hydroxypropylcellulose) (HPC) 95 % of control | dose: 200.0 mg/kg/injection, schedule: Q01DX009 (ip), vehicle: Klucel (hydroxypropylcellulose) (HPC) 91 % of control | dose: 400.0 mg/kg/injection, schedule: Q01DX009 (ip), vehicle: Klucel (hydroxypropylcellulose) (HPC) 86 % of control

CSc1nc(N)cc(C(N)=O)n1
inactive: dose: 100.0 mg/kg/injection, schedule: Q01DX Z (ip), vehicle: methylcellulose (MC) 101 % of control

CCCCCCCC/C=C\CCCCCCCC(=O)OC
inactive: [12] 91 % of control | [7] 96 % of control | [13] 92 % of control | [10] 100 % of control | [14] 95 % of control | [11] 98 % of control

NC(=S)N/N=C/c1ccccc1
inactive: dose: 75.0 mg/kg/injection, schedule: Q01DX001 (ip), vehicle: other 103 % of control | dose: 150.0 mg/kg/injection, schedule: Q01DX001 (ip), vehicle: other 105 % of control

OC1C/C=C/CCCCC1 (stereo unspecified)
inactive: [15] 106 % of control | [16] 100 % of control | dose: 400.0 mg/kg/injection, schedule: Q04DX002 (ip), vehicle: Klucel (hydroxypropylcellulose) (HPC) 103 % of control

COC1=C(Br)C(=O)C(OC)=C(Br)C1=O
inactive: [5] 95 % of control | [6] 92 % of control | [7] 91 % of control

Nc1ccc(Nc2ccccc2)cc1
inactive: [15] 100 % of control | [16] 104 % of control

Oc1ccc(C(c2ccc(O)cc2)(C(F)(F)F)C(F)(F)F)cc1
inactive: [12] 105 % of control | dose: 100.0 mg/kg/injection, schedule: Q04DX003 (ip), vehicle: alcohol 101 % of control | [13] 97 % of control | dose: 200.0 mg/kg/injection, schedule: Q04DX003 (ip), vehicle: alcohol 95 % of control | [14] 109 % of control | dose: 400.0 mg/kg/injection, schedule: Q04DX003 (ip), vehicle: alcohol 102 % of control
